Test results as given in ChEMBL document CHEMBL1201862, “PubChem BioAssay data set” (2004).
Counter-ions that a name gives are not always drawn.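 Test compounds were applied to cells in 96-well plates for 48 hours at 5 doses. GI50 is the concentration that inhibits growth by half.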 Calls of active or inactive are those of the source. Rule as the data show it: active = GI50 up to about 1.1 µM and inactive = higher.

Legend:
Test in all cases: NCI anticancer screen, dose series, 48 h
786-0 = test system: 786-0
A498 = test system: A498
ACHN = test system: ACHN
BT-549 = test system: BT-549
COLO 205 = test system: COLO 205
HCT-116 = test system: HCT-116
HOP-92 = test system: HOP-92
MCF7 = test system: MCF7
NCI/ADR-RES = test system: NCI/ADR-RES
OVCAR-3 = test system: OVCAR-3
OVCAR-8 = test system: OVCAR-8
PC-3 = test system: PC-3
SF-539 = test system: SF-539
SK-OV-3 = test system: SK-OV-3
SW-620 = test system: SW-620
TK-10 = test system: TK-10
U-251 = test system: U-251
MDA-N = test system: MDA-N
OVCAR-4 = test system: OVCAR-4

Measured: GI50

O=C1c2cc(Br)ccc2-c2ccc3c4ccc5c6c(ccc(c7ccc1c2c73)c64)C(=O)c1cc(Br)ccc1-5
inactive: 786-0 > 100 µM | A498 > 100 µM | ACHN > 100 µM | BT-549 > 100 µM | COLO 205 > 100 µM | HCT-116 > 100 µM | HOP-92 > 100 µM | MCF7 > 100 µM | NCI/ADR-RES > 100 µM | OVCAR-3 > 100 µM | OVCAR-8 > 100 µM | PC-3 > 100 µM | SF-539 > 100 µM | SK-OV-3 > 100 µM | SW-620 > 100 µM | TK-10 > 100 µM | U-251 > 100 µM

O=C(Nc1ccccc1)O/N=C(/CBr)c1ccccc1
inactive: 786-0 7.71 µM | A498 24 µM | ACHN 17.1 µM | COLO 205 15.7 µM | HCT-116 4.3 µM | HOP-92 16.1 µM | MCF7 16.7 µM | MDA-N 6.87 µM | NCI/ADR-RES 17.9 µM | OVCAR-3 17.7 µM | OVCAR-4 15.1 µM | OVCAR-8 14.6 µM | PC-3 12.6 µM | SF-539 7.11 µM | SK-OV-3 29.2 µM | SW-620 5.35 µM | TK-10 18.1 µM | U-251 14.5 µM

N#Cc1nc(/C=C/c2cccnc2)oc1N
inactive: 786-0 > 100 µM | A498 > 100 µM | ACHN > 100 µM | COLO 205 > 100 µM | HCT-116 > 100 µM | HOP-92 > 100 µM | MCF7 > 100 µM | MDA-N > 100 µM | NCI/ADR-RES > 100 µM | OVCAR-3 > 100 µM | OVCAR-4 > 100 µM | PC-3 > 100 µM | SF-539 > 100 µM | SK-OV-3 > 100 µM | SW-620 > 100 µM | TK-10 > 100 µM | U-251 > 100 µM

NC1=Nc2ncccc2C(=O)NN1
inactive: 786-0 > 10 µM | A498 > 10 µM | ACHN > 10 µM | BT-549 > 10 µM | HCT-116 > 10 µM | HOP-92 > 10 µM | MCF7 > 10 µM | MDA-N > 10 µM | OVCAR-3 > 10 µM | OVCAR-8 > 10 µM | PC-3 > 10 µM | SF-539 > 10 µM | SK-OV-3 > 10 µM | SW-620 > 10 µM | TK-10 > 10 µM | U-251 > 10 µM

Clc1ccc(/N=N/c2nc3ccccc3nc2/N=N/c2ccc(Cl)cc2Cl)c(Cl)c1
inactive: 786-0 85.5 µM | A498 > 100 µM | ACHN 45.9 µM | COLO 205 > 100 µM | HCT-116 > 100 µM | HOP-92 44 µM | OVCAR-3 70 µM | OVCAR-4 > 100 µM | OVCAR-8 > 100 µM | SF-539 > 100 µM | SW-620 > 100 µM | TK-10 > 100 µM | U-251 > 100 µM

CC(=O)O/C=C1/C[C@H]2[C@@H]3CCC4CC(C(C)=O)CC[C@]4(C)[C@H]3CC[C@]2(C)C1=O (some centres undefined)
inactive: 786-0 68.2 µM | A498 > 100 µM | ACHN > 100 µM | BT-549 > 100 µM | COLO 205 > 10 µM | HCT-116 29.6 µM | HOP-92 41 µM | MCF7 38 µM | MDA-N 88.1 µM | OVCAR-3 33.2 µM | OVCAR-4 > 100 µM | PC-3 > 100 µM | SK-OV-3 > 100 µM | SW-620 > 100 µM | TK-10 > 100 µM | U-251 40.6 µM

C(=C\N1CCCCC1)/c1nnnn1-c1ccccc1
inactive: 786-0 43.8 µM | A498 54.1 µM | ACHN 37.9 µM | BT-549 33 µM | COLO 205 > 100 µM | HCT-116 25.4 µM | HOP-92 66.1 µM | MDA-N 32.3 µM | NCI/ADR-RES 20.5 µM | OVCAR-3 30.5 µM | OVCAR-4 33.4 µM | OVCAR-8 26.4 µM | PC-3 27.7 µM | SF-539 25.3 µM | SK-OV-3 25.6 µM | SW-620 34.8 µM | TK-10 43.1 µM | U-251 21.1 µM

COc1ccc2c(O)c(Oc3ccc(Cl)cc3)c(=O)oc2c1
inactive: 786-0 > 100 µM | A498 38.5 µM | ACHN 93.3 µM | BT-549 36.9 µM | HCT-116 > 100 µM | HOP-92 34.5 µM | MCF7 > 100 µM | MDA-N > 100 µM | OVCAR-3 83.9 µM | OVCAR-4 > 100 µM | OVCAR-8 > 100 µM | PC-3 > 100 µM | SF-539 > 100 µM | SW-620 > 100 µM | TK-10 78.3 µM | U-251 53.5 µM

O=C(/N=N/c1cccc(Cl)c1)NNc1cccc(Cl)c1
inactive: 786-0 15.1 µM | A498 17.7 µM | ACHN 9.25 µM | BT-549 > 10 µM | HCT-116 8.22 µM | MDA-N 13.1 µM | OVCAR-3 15 µM | OVCAR-4 10.3 µM | OVCAR-8 17.3 µM | PC-3 8.97 µM | SW-620 16.2 µM | TK-10 25.1 µM | U-251 18.7 µM

COc1ccc(C(Cc2ccccc2)C2NC(=S)NC2=O)cc1 (centres undefined)
inactive: 786-0 > 25 µM | A498 > 25 µM | ACHN > 25 µM | COLO 205 > 25 µM | HCT-116 > 25 µM | HOP-92 > 25 µM | MCF7 > 25 µM | NCI/ADR-RES > 25 µM | OVCAR-3 > 25 µM | OVCAR-4 > 25 µM | OVCAR-8 > 25 µM | PC-3 > 25 µM | SF-539 > 25 µM | SK-OV-3 > 25 µM | SW-620 > 25 µM | TK-10 > 25 µM | U-251 > 25 µM

COc1ccc(/C=N/c2ccc(-c3nc4ccccc4s3)cc2)cc1OC
inactive: 786-0 19 µM | A498 18.8 µM | ACHN 22.5 µM | BT-549 30.5 µM | COLO 205 19.3 µM | HCT-116 29.1 µM | HOP-92 22.4 µM | MDA-N 30.9 µM | NCI/ADR-RES 27.5 µM | OVCAR-3 13.4 µM | OVCAR-4 34.3 µM | OVCAR-8 36.2 µM | PC-3 22.6 µM | SF-539 34.8 µM | SK-OV-3 31 µM | SW-620 34.8 µM | TK-10 28.6 µM | U-251 30.3 µM

C=C1CCCCCCCCCCC12SCCC2CCCCSC (centres undefined)
inactive: 786-0 29.2 µM | A498 20.8 µM | ACHN 20.3 µM | COLO 205 19 µM | HCT-116 17.8 µM | HOP-92 28.1 µM | MCF7 21 µM | MDA-N 34.4 µM | NCI/ADR-RES 20.8 µM | OVCAR-3 16.7 µM | OVCAR-4 39.8 µM | OVCAR-8 28.8 µM | PC-3 22.6 µM | SF-539 20.6 µM | SK-OV-3 47.3 µM | SW-620 20.3 µM | U-251 17.9 µM

O=C1N[C@@H]2O[C@H](CNC(=O)c3cc(Br)c[nH]3)C[C@]2(O)N1.O=C1N[C@H]2O[C@H](CNC(=O)c3cc(Br)c[nH]3)C[C@@]2(O)N1
inactive: 786-0 > 100 µM | A498 > 100 µM | ACHN > 100 µM | BT-549 > 100 µM | COLO 205 > 100 µM | HCT-116 > 100 µM | HOP-92 > 100 µM | MCF7 > 100 µM | NCI/ADR-RES > 100 µM | OVCAR-3 > 100 µM | OVCAR-4 > 100 µM | OVCAR-8 > 100 µM | PC-3 > 100 µM | SF-539 > 100 µM | SK-OV-3 > 100 µM | SW-620 > 100 µM | TK-10 > 100 µM | U-251 > 100 µM

O=C(O)C12C3CCCC1C2CC3 (centres undefined)
inactive: 786-0 > 100 µM | A498 > 100 µM | ACHN > 100 µM | COLO 205 > 100 µM | HCT-116 > 100 µM | HOP-92 > 100 µM | OVCAR-3 > 100 µM | OVCAR-8 > 100 µM | SF-539 > 100 µM | SK-OV-3 > 100 µM | TK-10 > 100 µM | U-251 > 100 µM

COc1cc2cc(C(=O)N3CC(CCl)c4ccc([N+](=O)[O-])cc43)[nH]c2c(OC)c1OC (centres undefined)
inactive: 786-0 > 100 µM | A498 > 100 µM | ACHN > 100 µM | BT-549 > 100 µM | COLO 205 > 100 µM | HCT-116 > 100 µM | HOP-92 > 100 µM | MCF7 > 100 µM | NCI/ADR-RES > 100 µM | OVCAR-3 > 100 µM | OVCAR-4 29.2 µM | OVCAR-8 > 100 µM | PC-3 > 100 µM | SF-539 > 100 µM | SW-620 > 100 µM | TK-10 > 100 µM | U-251 > 100 µM

O=C(NC1CCN(Cc2ccccc2)CC1)c1ccc(I)cc1
inactive: 786-0 97.5 µM | A498 > 100 µM | ACHN 96.2 µM | BT-549 87.5 µM | COLO 205 21.8 µM | HCT-116 39.6 µM | HOP-92 34 µM | MDA-N 54.6 µM | NCI/ADR-RES > 100 µM | OVCAR-3 > 100 µM | OVCAR-4 > 100 µM | OVCAR-8 > 100 µM | PC-3 62.7 µM | SF-539 78.3 µM | SK-OV-3 44.1 µM | SW-620 > 100 µM | TK-10 > 100 µM | U-251 81.1 µM

CC1=NCCc2c1[nH]c1cc(O)ccc21 [HARMALOL HYDROCHLORIDE]
inactive: 786-0 > 100 µM | A498 > 100 µM | ACHN > 100 µM | COLO 205 > 100 µM | HCT-116 > 100 µM | HOP-92 > 100 µM | OVCAR-3 > 100 µM | OVCAR-4 > 100 µM | OVCAR-8 > 100 µM | SF-539 > 100 µM | SK-OV-3 > 100 µM | SW-620 > 100 µM | TK-10 > 100 µM
